Data on 2 compounds can be found in patent publication US20250051758A1, “FolA Selection Assay to Identify Strains with Increased Soluble Target Protein Expression” (ABSCI CORPORATION, priority 2021, published 2025).

This assay relates to E. coli harboring plasmid encoding mCherry-FolA fusion under the control of pBAD promoter.

For the compound `Cc1cc(NS(=O)(=O)c2ccc(N)cc2)no1` [sulfamethoxazole], the “Inhibition of growth by sulfamethoxazole” value is given as “did not inhibit growth” and the “Sulfamethoxazole concentration at which sensitivity to trimethoprim is restored” value is > 2 µg/mL.
Consider `COc1cc(Cc2cnc(N)nc2N)cc(OC)c1OC` [trimethoprim], for which the “Resistance of cells to trimethoprim” value is recorded as “highly resistant” and the “Synergy of trimethoprim with sulfamethoxazole” value is “strong synergy”.
